Measurements: paper PMC6458997, “Deciphering the Molecular Mechanism Underpinning Phage Arbitrium Communication Systems” (Molecular Cell, 2019)
“Also recorded” adds a separate entry of the source. Read-outs that look alike come from different tables or passages of the source.

Legend:
SPbeta AimR D360A = assay: Thermal shift assay, mutant AimR D360A; format: binding, Bacillus subtilis SPbeta phage; settings: residual stabilization versus WT
Protocol: (§1) The thermal shift assay was conducted in a 7500 Fast Real time PCR System (Applied Biosystems). Samples of 20 μL containing 5 × Sypro Orange (Sigma-Aldrich) and 20 μM of protein in a 20 mM Tris pH 8 and 250 mM NaCl buffer were loaded in 96-well PCR plates. To calculate the apparent Kd peptide concentrations from 0 to 2 μM were added to the mixture. Samples were heated from 20 to 85°C in steps of one degree. Fluorescent intensity was plotted versus temperature and integrated with GraphPad Prism software using a Boltzmann model to calculate melting temperatures.

[1] = tested on: SPbeta AimR and operators presenting spacers from 12 bp to 35 bp; settings: pH 7.5
Protocol: AimR binding to its operator and the inhibition induced by the arbitrium peptides were analyzed by native polyacrylamide and agarose gel electrophoresis. […] Double strand DNA primer probes were purchased from Macrogen (Table S1 and Figure 3A). Purified PCR product or purchased probes (0.4μM) and AimR (4μM) protein were mixed in EMSA buffer (50 mM HEPES pH 7.5, 5 mM MgCl2, 75 mM NaCl and 0.5 mM EDTA). The samples were incubated for 10 min at room temperature. 8% polyacrylamide gels were electrophoresed in Tris-Borate-EDTA (TBE) buffer at 100V for one hour, followed by loading of the samples. Electrophoresis was then performed in TBE buffer at 4°C for about 150 min at 100V. Agarose gels (0.8%–1.2%) were run in TAE buffer at room temperature for about 100 min at 80V. Gels were stained with RedSafe (Intron Biotechnology).

SPbeta AimR [2] = target: T1, SPbeta AimR (Bacillus phage SPbeta, UniProt O64094); assay: SEC-MALS, effect of AimP on AimR oligomeric state; format: biochemical, Bacillus subtilis SPbeta phage; settings: 1 mM peptide in injected sample, 1 μM in running buffer; protein 5 mg/mL; 25 mM Tris pH 8, 250 mM NaCl
T1 construct: expresses the full-length AimR (residues 1-386) with an N-terminal 6xHistag; 6xHis tag followed by TEV protease site (N, cleaved yes); made in house; host or cells: E. coli BL21 (DE3) RIL
T1 sequence (O64094 whole entry, the tested form may be a part): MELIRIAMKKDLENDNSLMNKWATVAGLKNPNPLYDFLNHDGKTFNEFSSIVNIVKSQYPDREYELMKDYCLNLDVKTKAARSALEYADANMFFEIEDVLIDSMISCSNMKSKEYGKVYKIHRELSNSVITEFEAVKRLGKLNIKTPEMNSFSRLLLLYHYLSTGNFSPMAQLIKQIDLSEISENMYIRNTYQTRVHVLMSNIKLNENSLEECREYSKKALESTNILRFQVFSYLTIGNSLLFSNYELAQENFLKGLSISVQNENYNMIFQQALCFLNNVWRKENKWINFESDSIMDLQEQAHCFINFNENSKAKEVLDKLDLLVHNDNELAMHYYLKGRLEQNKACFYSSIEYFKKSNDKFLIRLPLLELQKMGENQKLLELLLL
Protocol: SEC-MALS experiments were performed using an AKTA pure system (GE Heralthcare) coupled to a Wyatt DAWN HELEOS-II MALS instrument and a Wyatt Optilab rEX differential refractometer (Wyatt). 50 μL of the protein samples were injected at a concentration of 5 mg/mL on a Superdex 200 HR 10/300 (GE Heralthcare) column equilibrated in 25 mM Tris pH 8, 250 mM NaCl. When the effect of the peptide in the oligomeric state was tested, 1 mM peptide was added to the injected sample and the running buffer was supplemented with peptide at a final concentration of 1 μM. The Astra 7.1.2 software from the manufacturer was used for acquisition and analysis of the data.

[3] = tested on: SPbeta AimR bound to putative SPbeta operators; format: biochemical, Bacillus subtilis SPbeta phage; settings: pH 7.5
Source text: (§2) Gels were stained with RedSafe (Intron Biotechnology).

[4] = tested on: SPbeta AimR bound to its operator; format: biochemical, Bacillus subtilis SPbeta phage
Source text: as §2

SPbeta AimR N202A = assay: Thermal shift assay, mutant AimR N202A; format: binding, Bacillus subtilis SPbeta phage; settings: residual stabilization versus WT
Protocol: as §1

SPbeta AimR [5] = target: T1, SPbeta AimR; format: binding, Bacillus subtilis SPbeta phage; settings: WT SPbeta AimR, 20 μM protein, 20 mM Tris pH 8, 250 mM NaCl
Protocol: as §1

[6] = tested on: AimR N202A bound to the AimR operator; assay: EMSA, AimP-induced DNA dissociation of mutant AimR N202A; format: biochemical, Bacillus subtilis SPbeta phage; settings: AimR 4 μM, probe 0.4 μM, HEPES pH 7.5, 10 min at room temperature
Source text: as §2

## GMPRGA [regulatory arbitrium AimP peptide for SPbeta AimR, hexapeptide, 95% purity, ProteoGenix]
SPbeta AimR D360A
  stabilization induced by AimP, AimR D360A: 1 °
[1]
  DNA binding of AimR-AimP complex: unable to bind DNA
SPbeta AimR [2]
  effect of AimP on AimR dimer: did not induce SPbeta AimR dimer dissociation
[3]
  DNA release from putative SPbeta operators: induces DNA release
[4]; pH 7.5
  effect of peptide on AimR-DNA binding: induced the release of AimR from DNA; also recorded: specifically disrupts the SPbeta AimR binding to its operator
SPbeta AimR N202A
  stabilization induced by AimP, AimR N202A: 1 °
SPbeta AimR [5]
  increment in the Tm (in words): strong stabilization of SPbeta AimR
SPbeta AimR [5]; 5 × Sypro Orange, 20 to 85°C in steps of one degree, one of three independent experiments
  melting temperature (Tm) of AimR in presence of peptide: 58.4 °C
[6]
  effect of AimP on DNA dissociation of AimR^N202A: did not induce DNA dissociation

## SAIRGA [AimP peptide specific for phi3T phage, negative control for SPbeta AimR, reference compound]
[4]; SPbeta AimR 4 μM, DNA probe 0.4 μM, 50 mM HEPES pH 7.5, 5 mM MgCl2, 75 mM NaCl, 0.5 mM EDTA, 10 min at room temperature
  effect of peptide on AimR-DNA binding: had no effect
SPbeta AimR [5]
  increment in the Tm (in words): No increment in the Tm
